Laboratory results taken from PMC6878970, “Understanding the physicochemical properties and degradation kinetics of nicotinamide riboside, a promising vitamin B3nutritional supplement” (Food & Nutrition Research, 2019).
Several values for one entry are separate records, joined by “and”; a condition that tells them apart may be missing. Equal values may be shown once.

Columns and labels:
[1] = parameters: method as in PMID 26791540; conditions: cited from earlier work
[2] = Degradation kinetics of NRCl in aqueous solutions (Arrhenius); assay type: physicochemical; conditions: for activation energy Ea of degradation: 55, 65, 75°C, n = 5
Protocol: NRCl degradation products and mechanism were determined and confirmed using ^1H NMR. NRCl degradation kinetics in aqueous solution was determined using three pH environments: pH 2.0, 5.0, and 7.4 (each with a constant ionic strength of 0.3M adjusted using NaCl), and three experimental temperature conditions, namely, 55°C, 65°C, and 75°C, respectively. In all cases, five replicates were used for pH–temperature combinations and each was an individual, sealed, and labelled glass vial with 20mL of the respective buffer. For each experiment, these vials were left overnight to equilibrate to the respective temperature environment in a temperature-controlled oven. At the start of each experiment, the vials were removed and a stock solution of NR was added. Aliquots were then extracted from each vial at this point for a t = 0 and the vials were placed back into the oven until the next time point. The sampling intervals were every 2, 1, and 0.5 h for 55°C, 65°C, and 75°C, respectively, and a total of five time points were used for each individual vial. When an aliquot was removed, it was dispensed into a 2mL micro tube and placed in ice to quench the reaction until preparation for HPLC analysis.

[3] = test system: mammalian cell lines; parameters: method as in PMID 18052316; conditions: cited from earlier work
[4] = Combinatorial DSC and 1H NMR (qNMR) thermal decomposition; assay type: physicochemical; conditions: quench-cooled
Protocol: A Bruker® Ultrashield 400 MHz NMR was used for NMR spectroscopy. All samples were prepared using deuterated water. For ^1H NMR spectra acquisition, 256 scans were used. A relative quantitative NMR (qNMR) method was established and validated by comparing the integral values of NR chemical shift peaks to the integral values of the peaks of Nam. The integral of a peak is directly proportional to the number of nuclei the peak represents and the molar concentration of the compound in the sample ([14]). The percentage of NR was calculated using Equation 2 (modified from the literature), where INR H2 and INam H2 were the integral values of the singlet of NR H2 at 9.6 ppm and the singlet for Nam H2 at 8.6 ppm, respectively. N represents the number of nuclei (protons) that contribute to each peak. In this case, N = 1 for both NR H2 and Nam H2 peaks as they represent one proton each.
% NR in smaple=(INR H2/NNR H2)/(INR H2/NNR H2)+(INam H2/NNam H2)×100 Equation 2
DSC was used in conjunction with ^1H NMR spectroscopy to assess NR stability at certain temperatures and confirm compositional change throughout the entire thermal degradation process. […] This was then repeated in pans with no lids and these pans were then put in 1mL of D2O until all the contents were fully dissolved. The resulting D2O solutions were then subjected to ^1H NMR analysis, as previously detailed, to assess the stability of NRCl at each stage of its melting motif.

[5] = NRCl stability in simulated gastrointestinal fluids; assay type: physicochemical
Protocol: NRCl powder was tested under simulated GI conditions to assess the stability of the raw material in fluids relevant to the GI physiology. These experiments were carried out using a Copley™ dissolution bath equipped with the USP II paddle apparatus at a stirring rate of 75rpm and a temperature of 37°C± 0.1°C. Five dissolution media were tested (Table 2). 0.1N HCl, USP simulated gastric fluid without pepsin (USP SGFW/O pepsin), and USP simulated gastric fluid with pepsin (USP SGF) were used to simulate the stomach environment. Phosphate standard buffer (Int. Pharm. SIF) and simulated intestinal fluid pH 6.8 (USP SIF) were used to simulate the intestinal environment. A 24-h simulation was also performed using the USP prolonged release (USP PR) method whereby for the first 2 h of the experiment the NRCl was added to 750 mL 0.1N HCl. Subsequently, 250 mL of 0.2M trisodium phosphate was added and pH adjusted to pH 6.8 for the remaining 22 h. This step-change pH model simulates the pH change in traversing from the stomach to the intestine ([15]).

[6] = Aqueous solubility determination; assay type: physicochemical; conditions: for solubility at 24 h: aqueous buffer, thermodynamic from solid
Protocol: Three pH environments, namely pH 2.0, 5.0, and, 7.4, were used to determine the aqueous solubility of NR. Each buffer was added to a glass vial and stored at 4°C prior to the experiments. NRCl powder was then slowly added over a 24-h-periodunder constant mixing until the solution was clearly saturated (visual observation, n = 3). Aliquots were then drawn from each vial and passed through a 0.22 μm syringe filter unit (Millipore, Merck, USA). Samples were then analysed using the validated HPLC method.

[7] = Experimental determination of pKa by UV spectroscopy; assay type: physicochemical; conditions: NaOH solutions; first focused experiment, pH range 11.0–12.2
Protocol: NR stock solution was added to nine respective buffer solutions ranging from pH 1.5 to 12.8 and analysed by UV spectroscopic scanning over 200–500 nm using a Cary 50 scan UV-visible spectrophotometer (Agilent Technologies, USA). […] Equation 1 is a modified Beers–Lambert and Henderson–Hasselbalch equation ([14]). This was used to calculate pKa. AI is the absorbance of the ionised species, AM is the absorbance of the molecular species, and A is the absorbance at any given pH. The same method as above was then repeated using the same parameters and equipment for a duplicate result.
pKa=pH+logAI−A/A−AM Equation 1

[8] = test system: human blood NAD+; parameters: method as in PMID 27721479; conditions: after one single oral dose; cited from earlier work
[9] = test system: Sirtuin (SIRT); parameters: method as in PMID 12297502, PMID 14522996, PMID 12899610; conditions: cited from earlier work

NC(=O)c1ccc[n+]([C@@H]2O[C@H](CO)[C@@H](O)[C@H]2O)c1 [NR, Nicotinamide riboside]
lowest adverse effect level [1]: 1,000 mg/kg/day
no-observed-adverse-effect level (NOAEL) [1]: 300 mg/kg/day
pre-exponential factor A of degradation ([2]; pH 2.0): 4.8e+10 min⁻¹
activation energy Ea of degradation ([2]; pH 2.0): 75.4 (±2.9) kJ/mol and 75.4 kJ/mol
pre-exponential factor A of degradation ([2]; pH 5.0): 3.2e+10 min⁻¹
activation energy Ea of degradation ([2]; pH 5.0): 76.9 (±1.1) kJ/mol and 76.9 kJ/mol
pre-exponential factor A of degradation ([2]; pH 7.4): 1.8e+12 min⁻¹
activation energy Ea of degradation ([2]; pH 7.4): 82.8 kJ/mol
increase in the degradation rate for every 10°C temperature elevation ([2]; same pH environment): approximate twofold increase
increase of available NAD+ [3]: up to twofold
degradation (qNMR) ([4]; solid heated to 115°C): 2%
degradation (qNMR) ([4]; solid heated to 120°C): 7%
degradation (qNMR) ([4]; solid heated to 125°C): 55%
share of the sample that was NR (qNMR) ([4]; solid heated to 140°C): 0.45%

NC(=O)c1ccc[n+]([C@@H]2O[C@H](CO)[C@@H](O)[C@H]2O)c1 [NRCl, nicotinamide riboside chloride]
NRCl remaining ([5]; 0.1N HCl pH 1.2, 37°C, 75rpm, after 2 h): 97.64 ± 0.08%
NRCl remaining ([5]; 24-h GI simulation (USP PR, pH 1.2 then 6.8 after 2 h), after 8 h): 90.51 ± 0.82%
NRCl remaining ([5]; Int. Pharm. SIF pH 6.8, 37°C, after 2 h): 94.32 ± 1.16%
NRCl remaining ([5]; Int. Pharm. SIF pH 6.8, 37°C, after another 2 h (4 h)): 92.71 ± 0.81%
NRCl remaining ([5]; USP SGF (with pepsin) pH 1.2, 37°C, 75rpm, after 2 h): 97.17 ± 0.19%
NRCl remaining ([5]; USP SGF without pepsin pH 1.2, 37°C, 75rpm, after 2 h): 98.59 ± 0.10%
NRCl remaining ([5]; USP SIF pH 6.8, 37°C, after 2 h): 94.71 ± 2.66%
NRCl remaining ([5]; USP SIF pH 6.8, 37°C, after another 2 h (4 h)): 93.54 ± 2.37%
solubility class according to the USP definitions ([6]; all three tested pH environments (2.0, 5.0, 7.4), freely soluble = 100–1,000 mg/mL): freely soluble
solubility at 24 h ([6]; pH 7.4, aqueous buffer): 826 ± 34.4 mg/mL
solubility at 24 h ([6]; pH 2.0): 972.7 ± 8.1 mg/mL
solubility at 24 h ([6]; pH 5.0): 860 ± 31 mg/mL
pKa [7]: 11.5 ± 0.2
change of degradation rate on raising the pH value from 5.0 to 7.4 ([2]; at each respective temperature): doubled
activation energy Ea of degradation ([2]; pH 7.4): 82.8 (±4.4) kJ/mol
increase in human blood NAD+ [8]: more than twofold
degradation (qNMR) ([4]; solid heated to 115°C): completely intact

NC(=O)c1cccnc1 [Nam, Nicotinamide]
Sirtuin (SIRT) inhibition [9]: known Sirtuin (SIRT) inhibitor
